The subject of one assay is HER2+ breast cancer. In words: human PET study versus [18F] Fludeoxyglucose PET scan in an HER2+ breast cancer patient. The class given is in vivo.
A further assay concerns αvβ3 and αvβ5 integrin. As to the kind of experiment: comparison of the αvβ3 and αvβ5 integrin antagonist peptidomimetic with an αvβ3 integrin peptide in nude mice, same chelator and radionuclide. The note with it: versus αvβ3 integrin peptide. The class given is in vivo. An excerpt:
Embodiments of the present invention also utilize the therapeutic compounds of the invention in conjunction with a diagnostic. Compounds containing αvβ3/αvβ5 anti-integrin antagonist peptidomimetic, displaying a selective affinity for the HER2+ protein, vitronectin, fibronectin, tenascin, reelin, kindlin, talin or combination thereof for the diagnosis or prognosis of disorders using PET, SPECT and MRI or combinations by administering an effective amount of activity thereof to a subject, particularly for the diagnosis of diseases related to metastasis and angiogenesis such as breast cancer, lung cancer, ovarian cancer, gastric cancer, esophageal cancer, blood borne cancers, musculoskeletal tumors, melanoma, head and neck cancer, human glioma, cervical cancer, vascular restenosis, osteoporosis, rheumatoid arthritis. […] The compounds referred to may be radiotracers for nuclear medicine, such as the Gallium-68 or Fluorine-18, […], Copper-64, or Technetium-99m, covalently bound to a spacer, chelator, directly to the peptidomimetic, to a nanoparticle or to more than one amino acid unit of the peptidomimetic. Other radiotracers are those reported in the publication Radionuclide Peptide Cancer Therapy, edited by M. Chinol and G. Paganelli, Taylor and Francis CRC Press, 2006. […]

Consider “4-[2-(3,4,5,6-tetrahydropyrimidine-2-ylamino)ethyloxy]benzoyl-2-[N-(3-aminoneopenta-1-carbamyl)]-aminoethylsulfonyl-amino-β-alanine [integrin antagonist peptidomimetic]”, for which the “tumors distant from the primary detected” value with HER2+ breast cancer was 25 tumors. In addition, the “affinity for the targeted organs relative to the comparator αvβ3 integrin peptide” value in the assay with αvβ3 and αvβ5 integrin was “three to seven times better”.

Values taken from patent US20200085979A1, “PRECISION MEDICINE THERANOSTICS AND DIAGNOSTICS A COMBINATION THEREOF” (priority 2018, published 2020).
